The source of these data is patent publication US9169241B2, “Quinolinyloxyphenylsulfonamides” (Max-Planck-Gesellschaft Zur Forderung der Wissenschaften …, priority 2009, dated 2015).

Read-outs that look alike come from different tables or passages of the source.

In series [1] the test system is C8161. The series is described as follows: Apoptosis assay (Cellomics, nucleus condensation). The series is classed as cell-based. As to conditions: Homo sapiens, Table III, read-out: Apoptosis induction in C8161. The essentials: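 5000 cells/well, Hoechst 33342 live stain; cpd 12.5, 6.25, 3.125, 1.56, 0.78, 0.39 μM or DMSO; imaged 24 h + 48 h; nuclear condensation = intensity variation per nucleus; cell number loss noted.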

The test system of series [2] is indicated cell line. The series can be described thus: Wound healing migration assay (Table IV). Format: cell-based. Particulars: compounds at 12.5, 6.25, 3.125 μM, 48 h-72 h. In a few lines:
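Cells seeded at 150000/24 well, grown to monolayer overnight, scratched with a pipette tip, then treated with compound at 12.5, 6.25 or 3.125 μM versus DMSO. Stopped by crystal violet fixation at 48-72 h once control wounds closed; IC50 taken as 50% wound size between t0 and t48 or t72.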

Series [3] deals with Hs578T. The series can be described thus: Cell vitality assay (ATP assay, CellTiter-Glo). The series is classed as cell-based. Particulars: Homo sapiens, Hs-578T; HS578T cell line, 72 h; Table Ib; read-out: IC50 ATP-Assay HS578T after 72 h. In a few lines: (§1)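 1000 cells/well were exposed to compound at 12.5 μM down to 0.195 μM (twofold steps) or DMSO for 72 h. ATP was then measured by luminescence after 10 min reagent lysis at room temperature. IC50 was taken as the concentration giving 50% of the DMSO-control ATP level.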
(ATP-based viability assays read luminescence as a measure of living cells.)

Series [4] has as its system U118. The series can be described thus: Cell vitality assay (ATP assay, CellTiter-Glo). Format: cell-based. In a few lines: as §1
Series [5] has as its system SF126. The series can be described thus: Cell vitality assay (ATP assay, CellTiter-Glo). Format: cell-based. Particulars: Homo sapiens, SF-126. In a few lines:
as §1

Series [6] relates to Hs578T. The series is described as follows: Matrigel outgrowth assay/branching assay. Format: cell-based. As to conditions: Homo sapiens, Hs-578T; HS578T cell line; Table Ib; read-out: Total branching inhibition in Matrigel HS578T. The essentials:
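Cells (5000/well) were seeded onto polymerized 3 mg/ml Matrigel with compound at 3.125, 1.56 or 0.78 μM, or DMSO. Imaging by inverted microscopy at 48, 72 and 96 h scored invasive branching. Only concentrations giving total branching inhibition counted as positive.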

The mark [7] stands for this setting: Homo sapiens, A 172, A172 cells, read-out: IC50 Wound healing Assay A172.
[8] abbreviates: Homo sapiens, SF-126, SF126 cells, read-out: IC50 Wound healing Assay SF126.
Where [9] appears, read: Homo sapiens, C8161 cells, read-out: IC50 Wound healing Assay C8161.
[10] abbreviates: U118 cells, read-out: IC50 Wound healing Assay U118.
[11] abbreviates: U118, 72 h, Table IIa, read-out: IC50 ATP-Assay after 72 h U118.
Setting [12] is: cell vitality assay, U118, Table IIc, read-out: IC50 U118.
Where [13] appears, read: SF126, 72 h, Table IIa, read-out: IC50 ATP-Assay after 72 h SF126.
Where [14] appears, read: cell vitality assay, SF126, Table IIb, read-out: IC50 SF126.

For the molecule `COc1cc2c(Oc3ccc(NS(=O)(=O)c4cc(F)ccc4F)cc3F)ccnc2cc1OCCCN1CCN(C)CC1` [Example 12, 2,5-Difluoro-N-(3-fluoro-4-{6-methoxy-7-[3-(4-methyl-piperazin-1-yl)-propoxy]-quinolin-4-yloxy}-phenyl)-benzenesulfonamide], the IC50 in series [1] is 12.5 to 50 µM; in series [2] (setting [7]) it was at most 12.5 µM; in series [2] (setting [8]) it was at most 12.5 µM; in series [2] (setting [9]), at most 12.5 µM; in series [2] (setting [10]) it was at most 12.5 µM; in series [3], at most 12.5 µM. Besides, the IC50 in series [4] (setting [11]) was at most 12.5 µM; in series [4] (setting [12]), at most 12.5 µM; in series [5] (setting [13]), at most 12.5 µM; in series [5] (setting [14]) it was at most 12.5 µM; in series [6], at most 10 µM.
Broadly, the melting point is the temperature, or range, at which the solid turns liquid. Take `COc1cc2c(Oc3ccc(NS(=O)(=O)c4ccccc4C(F)(F)F)cc3F)ccnc2cc1OCCCN1CCN(C)CC1` [Example 24, N-(3-Fluoro-4-{6-methoxy-7-[3-(4-methyl-piperazin-1-yl)-propoxy]-quinolin-4-yloxy}-phenyl)-2-trifluoromethyl-benzenesulfonamide]: the melting point lay in the range of 102 to 106 °C. Further, the IC50 in series [1] is at most 12.5 µM. Further, the IC50 in series [2] (setting [9]) is at most 12.5 µM. The IC50 in series [4] (setting [12]) fell in the range of 12.5 to 50 µM. Moreover, the IC50 in series [5] (setting [14]) was at most 12.5 µM.
`COC(=O)c1sccc1S(=O)(=O)Nc1ccc(Oc2ccnc3cc(OCCCN4CCCCC4)c(OC)cc23)c(F)c1` [Example 155, 3-{3-Fluoro-4-[6-methoxy-7-(3-piperidin-1-yl-propoxy)-quinolin-4-yloxy]-phenylsulfamoyl}-thiophene-2-carboxylic acid methyl ester]: the melting point fell in the range of 138 to 139 °C. Besides, the IC50 in series [2] (setting [7]) is at most 12.5 µM. In addition, in series [2] (setting [8]), the IC50 was at most 12.5 µM. Besides, the IC50 in series [2] (setting [10]) was at most 12.5 µM. Besides, the IC50 in series [3] is at most 12.5 µM. Further, in series [4] (setting [11]), the IC50 is at most 12.5 µM. Further, the IC50 in series [5] (setting [13]) is at most 12.5 µM. In series [6], the IC50 was in the range of 10 to 25 µM.
The molecule `COC(=O)c1sccc1S(=O)(=O)Nc1ccc(Oc2ccnc3cc(OCCCN4CCC(C)CC4)c(OC)cc23)c(F)c1` [Example 156, 3-(3-Fluoro-4-{6-methoxy-7-[3-(4-methyl-piperidin-1-yl)-propoxy]-quinolin-4-yloxy}-phenylsulfamoyl)-thiophene-2-carboxylic acid methyl ester] showed a melting point of 139 to 141 °C. Further, the IC50 in series [2] (setting [7]) is at most 12.5 µM. The IC50 in series [2] (setting [8]) is at most 12.5 µM. In addition, the IC50 in series [2] (setting [10]) is at most 12.5 µM. The IC50 in series [3] was at most 12.5 µM. Also, the IC50 in series [4] (setting [11]) is at most 12.5 µM. Besides, the IC50 in series [5] (setting [13]) is at most 12.5 µM. The IC50 in series [6] is 10 to 25 µM.
`COC(=O)c1sccc1S(=O)(=O)Nc1ccc(Oc2ccnc3cc(OCCCN4CCOCC4)c(OC)cc23)c(F)c1` [Example 157, 3-{3-Fluoro-4-[6-methoxy-7-(3-morpholin-4-yl-propoxy)-quinolin-4-yloxy]-phenylsulfamoyl}-thiophene-2-carboxylic acid methyl ester] displayed a melting point of 167 to 168 °C. In addition, the IC50 in series [2] (setting [7]) is at most 12.5 µM. In addition, the IC50 in series [2] (setting [8]) was at most 12.5 µM. In addition, the IC50 in series [2] (setting [10]) is at most 12.5 µM. The IC50 in series [3] was at most 12.5 µM. In series [4] (setting [11]), the IC50 is at most 12.5 µM. Further, the IC50 in series [5] (setting [13]) was at most 12.5 µM. Besides, the IC50 in series [6] was 10 to 25 µM.
Take `COC(=O)c1sccc1S(=O)(=O)Nc1ccc(Oc2ccnc3cc(OCCCN4CCN(C)CC4)c(OC)cc23)c(F)c1` [Example 158, 3-(3-Fluoro-4-{6-methoxy-7-[3-(4-methyl-piperazin-1-yl)-propoxy]-quinolin-4-yloxy}-phenylsulfamoyl)-thiophene-2-carboxylic acid methyl ester]: the melting point lay in the range of 146 to 148 °C. In addition, the IC50 in series [2] (setting [7]) is at most 12.5 µM. Besides, in series [2] (setting [8]), the IC50 was at most 12.5 µM. In series [2] (setting [10]), the IC50 is at most 12.5 µM. For the same molecule, the IC50 in series [3] was at most 12.5 µM. The IC50 in series [4] (setting [11]) was at most 12.5 µM. Also, the IC50 in series [5] (setting [13]) is at most 12.5 µM. The IC50 in series [6] was in the range of 10 to 25 µM.
As to `COc1cc2c(Oc3ccc(NS(=O)(=O)c4c(F)cccc4F)cc3F)ccnc2cc1OCCCN(C)C` [Example 178, N-{4-[7-(3-Dimethylamino-propoxy)-6-methoxy-quinolin-4-yloxy]-3-fluoro-phenyl}-2,6-difluoro-benzenesulfonamide], the melting point is 125 to 127 °C. Further, in series [2] (setting [7]), the IC50 is at most 12.5 µM. In series [2] (setting [8]), the IC50 was at most 12.5 µM. In addition, the IC50 in series [2] (setting [10]) was at most 12.5 µM. In series [3], the IC50 is at most 12.5 µM. Moreover, in series [4] (setting [11]), the IC50 was at most 12.5 µM. The IC50 in series [5] (setting [13]) is at most 12.5 µM. In addition, the IC50 in series [6] is at most 10 µM.
`COc1cc2c(Oc3ccc(NS(=O)(=O)c4ccccc4OC(F)(F)F)cc3F)ccnc2cc1OCCCN(C)C` [Example 179, N-{4-[7-(3-Dimethylamino-propoxy)-6-methoxy-quinolin-4-yloxy]-3-fluoro-phenyl}-2-trifluoromethoxy-benzenesulfonamide]: the melting point fell in the range of 94 to 96 °C. The IC50 in series [2] (setting [7]) was at most 12.5 µM. In addition, in series [2] (setting [8]), the IC50 was at most 12.5 µM. Besides, the IC50 in series [2] (setting [10]) fell in the range of 12.5 to 50 µM. In addition, the IC50 in series [3] is at most 12.5 µM. The IC50 in series [4] (setting [11]) is at most 12.5 µM. For the same molecule, in series [5] (setting [13]), the IC50 is at most 12.5 µM. For the same molecule, the IC50 in series [6] is 10 to 25 µM.
Molecule `COc1cc2c(Oc3ccc(NS(=O)(=O)c4c(Cl)cccc4Cl)cc3F)ccnc2cc1OCCCN(C)C` [Example 181, 2,6-Dichloro-N-{4-[7-(3-dimethylamino-propoxy)-6-methoxy-quinolin-4-yloxy]-3-fluoro-phenyl}-benzenesulfonamide] gave a melting point of 197 to 198 °C. Further, the IC50 in series [2] (setting [7]) was at most 12.5 µM. In addition, the IC50 in series [2] (setting [8]) was at most 12.5 µM. The IC50 in series [2] (setting [10]) is at most 12.5 µM. Also, in series [3], the IC50 is at most 12.5 µM. The IC50 in series [4] (setting [11]) was at most 12.5 µM. In series [5] (setting [13]), the IC50 was at most 12.5 µM. The IC50 in series [6] was at most 10 µM.
Regarding `COC(=O)c1sccc1S(=O)(=O)Nc1ccc(Oc2ccnc3cc(OCCCN(C)C)c(OC)cc23)c(F)c1` [Example 184, 3-{4-[7-(3-Dimethylamino-propoxy)-6-methoxy-quinolin-4-yloxy]-3-fluoro-phenylsulfamoyl}-thiophene-2-carboxylic acid methyl ester], the melting point was 80 to 82 °C. Besides, in series [2] (setting [7]), the IC50 is at most 12.5 µM. In addition, the IC50 in series [2] (setting [8]) is at most 12.5 µM. Moreover, the IC50 in series [2] (setting [10]) was at most 12.5 µM. The IC50 in series [3] is at most 12.5 µM. In series [4] (setting [11]), the IC50 was at most 12.5 µM. In series [5] (setting [13]), the IC50 was at most 12.5 µM. The IC50 in series [6] was 10 to 25 µM.
In turn, `COc1cc2c(Oc3c(Cl)cc(NS(=O)(=O)c4c(F)cccc4F)cc3Cl)ccnc2cc1OCCCN1CCC(C)CC1` [Example 209, N-(3,5-Dichloro-4-{6-methoxy-7-[3-(4-methyl-piperidin-1-yl)-propoxy]-quinolin-4-yloxy}-phenyl)-2,6-difluoro-benzenesulfonamide] yielded a melting point of 146 to 151 °C. For the same molecule, the IC50 in series [2] (setting [7]) is at most 12.5 µM. Besides, in series [2] (setting [8]), the IC50 is at most 12.5 µM. Moreover, in series [2] (setting [10]), the IC50 is at most 12.5 µM. Moreover, in series [3], the IC50 is at most 12.5 µM. Besides, in series [4] (setting [11]), the IC50 was at most 12.5 µM. Besides, the IC50 in series [5] (setting [13]) is at most 12.5 µM. Moreover, the IC50 in series [6] is at most 10 µM.
For `COc1cc2c(Oc3c(Cl)cc(NS(=O)(=O)c4ccccc4C(F)(F)F)cc3Cl)ccnc2cc1OCCCN1CCC(C)CC1` [Example 210, N-(3,5-Dichloro-4-{6-methoxy-7-[3-(4-methyl-piperidin-1-yl)-propoxy]-quinolin-4-yloxy}-phenyl)-2-trifluoromethyl-benzenesulfonamide], the melting point fell in the range of 148 to 151 °C. Also, in series [2] (setting [7]), the IC50 is at most 12.5 µM. For the same molecule, the IC50 in series [2] (setting [8]) is at most 12.5 µM. Also, in series [2] (setting [10]), the IC50 was at most 12.5 µM. The IC50 in series [3] is at most 12.5 µM. Also, in series [4] (setting [11]), the IC50 is at most 12.5 µM. Also, the IC50 in series [5] (setting [13]) was at most 12.5 µM. For the same molecule, the IC50 in series [6] was at most 10 µM.
